Assay results reported in US20230340137A1, “METHODS, THERAPIES AND USES FOR TREATING CANCER” (PFIZER INC., priority 2020, published 2023).

Legend:
H929-luc cells = test: BCMAxCD3 mediated cell killing with human T cells, with or without GSI (luciferase viability); format: cell-based; settings: with or without 1 μM GSI, 60 hours
Description: (§1) CD3^+ T cells from PBMCs (Stem Cell Technologies) were negatively selected using EasySep Human T cell enrichment kit (Stem Cell Technologies). Multiple myeloma cells expressing luciferase (MM.1S-luc, OPM2-luc, H929-luc, Molp8-luc, RPMI8226-luc) were treated with 1 μM GSI […]. After 24 hours, cells were seeded with 50,000 CD3^+ pan T cells in a clear 96-well V-bottom plate. Cells were further treated with a range of BCMAxCD3 bispecific antibody concentrations with or without 1 μM GSI. 60 hours after treatment, luciferase activity in treated cells was analyzed using NeoLite reagent kit (Perkin Elmer) and acquired on VictorX multimode plate reader (Perkin Elmer). Cell viability was calculated by dividing luciferase activity of treated cells over luciferase activity of untreated control (no BCMAxCD3 bispecific antibody added).

RPMI8226-luc cells = test: as above; format: cell-based; settings: with or without 1 μM GSI, 60 hours
Description: as §1

Molp8-luc cells = test: as above; format: cell-based; settings: with or without 1 μM GSI, 60 hours
Description: as §1

[1] = tested on: adult patients with advanced multiple myeloma; test: Phase 1 clinical study NCT03269136, patient response per IMWG criteria; format: in vivo, human
Source text: This Example illustrates an ongoing Phase 1 open-label, multicenter clinical study of PF-06863135 (BCMA×CD3 bispecific) as monotherapy and in combination with sasanlimab, lenalidomide or pomalidomide, in adult patients with advanced multiple myeloma who have relapsed from or are refractory to standard therapy. The study has been registered on ClinicalTrials.gov with identifier NCT03269136 and was first posted August 2017. Study results for Part 1 of the trial and additional arms for the study are described in this Example.
Part 1 of the Study is the […] single agent dose escalation arm at the dose levels of 0.1, 0.3, 1, 3, 10, 30, and 50 μg/kg Q1W by intravenous (IV) administration, and at the dose levels of 80, 130, 215, 360, 600 and 1000 μg/kg Q1W by subcutaneous (SC) administration. Upon reaching maximum tolerated dose (MTD)/maximum administered dose (MAD), patients can be treated at a dose level selected from the foregoing dose levels described in this paragraph, and below the MTD/MAD fora Q2W administration, both IV and SC, to further support the recommended phase 2 dose (RP2D) decision. For the study, dose limiting toxicity observation period is set at 21 days for Q1W dosing and 28 days for Q2W dosing. The treatment cycle, aka cycle, for Q1W dosing would be 3 weeks, and for Q2W dosing would be four weeks.
Clinical Outcome of Part 1 of the Study. As of 15 Apr. 2020, a total of 23 patients were enrolled in Part 1 of the study and had been treated with PF-06863135 administered intravenously (IV) at 0.1 (N=2), 0.3 (N=3), 1 (N=2), 3 (N=3), 10 (N=2), 30 (N=5), and 50 (N=6) μg/kg. As of Aug. 21, 2020, a total of 30 patients were enrolled in Part 1 of the study and had been treated with PF-06863135 administered subcutaneously (SC) at 80 (N=6), 130 (N=4), 215 (N=4), 360 (N=4), 600 (N=6) and 1000 (N=6) μg/kg. Safety and efficacy data were available for in 23 IV and 30 SC treated patients per IMWG (International Myeloma Working Group) criteria.
Part 1.1 of the Study is an alternative maintenance dose escalation arm for single agent PF-06863135. If excessive toxicity occurs or the maximum tolerated dose (MTD)/maximum administered dose (MAD) is reached at a dose level that is earlier than desired in Part 1 of the study described above, a priming dose will be administered one week prior to the day 1 cycle 1 administration of the dose (maintenance dose) at this dose level and for all subsequent dose levels in the dose escalation that may be initiated for Part 1.1. The priming dosing will be at a lower dose level than the maintenance dose.
Clinical outcome of Part 1.1 of the Study. As of Feb. 4, 2021, a total of 20 patients were enrolled and treatment in Part 1.1 of the Study, with cohort of 7 patients at a 600 μg/kg priming dose followed by 1000 μg/kg Q1W dosing, and a cohort of 13 patients at a 600 μg/kg priming dose followed by 1000 μg/kg Q2W dosing. The CRS in these two cohorts is described in Table 13. Introducing of priming dose decreased medium duration of CRS by 50%, from 4 days to 2 days. The dose frequency in part 1.1 of the study (Q1W v. Q2W) had no impact on the CRS. Patient response of Part 1.1 of the Study is described in Table 14.

[2] = 600 μg/kg priming, 1000 μg/kg Q1W SC, N = 7
[3] = 600 μg/kg priming, 1000 μg/kg Q2W SC, N = 13

PF-06863135: heterodimeric humanized full-length bispecific antibody, one BCMA binding arm and one CD3 binding arm, modified human IgG2Δa Fc
H929 cell viability (H929-luc cells; BCMAxCD3 0.00001 nM): 80.2 ± 0.3 % control | H929 cell viability (H929-luc cells; BCMAxCD3 0.00005 nM): 81.1 ± 0.2 % control | H929 cell viability (H929-luc cells; BCMAxCD3 0.00026 nM): 79 ± 0.8 % control | H929 cell viability (H929-luc cells; BCMAxCD3 0.00128 nM): 77.8 ± 3.3 % control | H929 cell viability (H929-luc cells; BCMAxCD3 0.0064 nM): 81.2 ± 3 % control | H929 cell viability (H929-luc cells; BCMAxCD3 0.032 nM): 98.6 ± 1.2 % control | H929 cell viability (H929-luc cells; BCMAxCD3 0.16 nM): 23.2 ± 7.2 % control | H929 cell viability (H929-luc cells; BCMAxCD3 0.8 nM): 11.3 ± 1.5 % control | H929 cell viability (H929-luc cells; BCMAxCD3 4 nM): 8.6 ± 3 % control | RPMI8226 cell viability (RPMI8226-luc cells; BCMA × CD3 0.00064 nM): 113.2 ± 10.6 % control | RPMI8226 cell viability (RPMI8226-luc cells; BCMA × CD3 0.0032 nM): 130.5 ± 19.5 % control | RPMI8226 cell viability (RPMI8226-luc cells; BCMA × CD3 0.016 nM): 113.4 ± 1.3 % control | RPMI8226 cell viability (RPMI8226-luc cells; BCMA × CD3 0.08 nM): 54.2 ± 16.9 % control | RPMI8226 cell viability (RPMI8226-luc cells; BCMA × CD3 0.4 nM): 28.7 ± 13.6 % control | RPMI8226 cell viability (RPMI8226-luc cells; BCMA × CD3 2 nM): 25.7 ± 5.5 % control | RPMI8226 cell viability (RPMI8226-luc cells; BCMA × CD3 10 nM): 19.9 ± 1.1 % control | RPMI8226 cell viability (RPMI8226-luc cells; BCMA × CD3 50 nM): 19.4 ± 5^ % control | Molp8 cell viability (Molp8-luc cells; BCMAxCD3 0.00001 nM): 64 ± 11.6 % control | Molp8 cell viability (Molp8-luc cells; BCMAxCD3 0.00005 nM): 59.1 ± 4.6 % control | Molp8 cell viability (Molp8-luc cells; BCMAxCD3 0.00026 nM): 58.5 ± 0.6 % control | Molp8 cell viability (Molp8-luc cells; BCMAxCD3 0.00128 nM): 66.7 ± 0.3 % control | Molp8 cell viability (Molp8-luc cells; BCMAxCD3 0.0064 nM): 55.2 ± 1.3 % control | Molp8 cell viability (Molp8-luc cells; BCMAxCD3 0.032 nM): 66.1 ± 4.9 % control | Molp8 cell viability (Molp8-luc cells; BCMAxCD3 0.16 nM): 8 ± 2 % control | Molp8 cell viability (Molp8-luc cells; BCMAxCD3 0.8 nM): 6.1 ± 0.7 % control | Molp8 cell viability (Molp8-luc cells; BCMAxCD3 4 nM): 5.2 ± 0.3 % control | patients achieving a complete response ([1]; 50 μg/kg IV): 1 patient | OR (percent) ([1]; 215 μg/kg SC, N = 4): (75%) | OR (responders/patients) ([1]; 215 μg/kg SC, N = 4): 3/4 | PR (number of patients) ([1]; 215 μg/kg SC, N = 4): 1 | sCR (number of patients) ([1]; 215 μg/kg SC, N = 4): 2 | OR (percent) ([1]; 360 μg/kg SC, N = 4): (75%) | OR (responders/patients) ([1]; 360 μg/kg SC, N = 4): 3/4 | PD (number of patients) ([1]; 360 μg/kg SC, N = 4): 1 | VGPR (number of patients) ([1]; 360 μg/kg SC, N = 4): 2 | sCR (number of patients) ([1]; 360 μg/kg SC, N = 4): 1 | OR (percent) ([1]; 600 μg/kg SC, N = 6): (67%) | OR (responders/patients) ([1]; 600 μg/kg SC, N = 6): 4/6 | PD (number of patients) ([1]; 600 μg/kg SC, N = 6): 1 | VGPR (number of patients) ([1]; 600 μg/kg SC, N = 6): 2 | sCR (number of patients) ([1]; 600 μg/kg SC, N = 6): 2 | CR (number of patients) [1, 2]: 2 | OR (percent) [1, 2]: (57%) | OR (responders/patients) [1, 2]: 4/7 | PR (number of patients) [1, 2]: 1 | VGPR (number of patients) [1, 2]: 1 | OR (percent) [1, 3]: (54%) | OR (responders/patients) [1, 3]: 7/13 | PD (number of patients) [1, 3]: 3 | PR (number of patients) [1, 3]: 3 | VGPR (number of patients) [1, 3]: 4 | CR (number of patients) ([1]; 1000 μg/kg SC, N = 6): 1 | OR (percent) ([1]; 1000 μg/kg SC, N = 6): (83%) | OR (responders/patients) ([1]; 1000 μg/kg SC, N = 6): 5/6 | PD (number of patients) ([1]; 1000 μg/kg SC, N = 6): 1 | PR (number of patients) ([1]; 1000 μg/kg SC, N = 6): 1 | VGPR (number of patients) ([1]; 1000 μg/kg SC, N = 6): 3 | clinical efficacy ([1]; 600 and 1000 μg/kg SC): seen in most patients | subjects with best response of stable disease ([1]; IV cohorts (0.3-50 μg/kg)): Ten | patients achieving a minimal response ([1]; IV cohorts, at 3 μg/kg and 50 μg/kg IV): 2 patients
